Source: patent publication US9221746B2, “Homo- and hetero-polyamino-acid derivatives of fullerene C60, method for producing same, and pharmaceutical compositions based on said derivatives” (priority 2011, dated 2015)
Read-outs that look alike come from different tables or passages of the source.

How the values were obtained:
[1] = system: A/Aichi/2/69 (H3N2) influenza virus; experiment: Induced influenza pneumonia in mice
[2] = system: breast adenocarcinoma Ca-755; type: in vivo, mice; details: for ILT, %: increase in lifetime compared to the control
Method: These studies were carried out at the Institute for Toxicology, St. Petersburg, 2006, according to “Guidelines for the Study of Antitumor Activity of Pharmacological Agents” (“Manual on Experimental (Preclinical) Study of New Pharmacological Agents,” Ministry of Public Health of the Russian Federation, Remedium, Moscow, 2000, pp. 319-325).
The L1210 leukemia, breast adenocarcinoma Ca-755, and Lewis carcinoma (3LL) tumor cell strain were purchased from the Petrov Research Institute for Oncology, the Ministry of Public Health of the Russian Federation (St. Petersburg).
C 57 BL/6J line male mice with transplanted Ca-755 cells. Mouse ages: 6 to 8 weeks; body weights: 19 to 25 g.
The antitumor effect was ascertained through the following parameters: • ascite accumulation as animal body weight gain; • the lifetime of animals; and • tumor growth. The larger dimension of the tumor (length) and the smaller dimension normal thereto (width) were measured. The tumor volume was calculated, and the inhibition of tumor growth was calculated by a formula. The ascertainment criterion was the day when each individual tumor reached a volume of 500 mm^3.

[3] = LD70, intramuscularly 50 mg/kg/day
[4] = LD70, intramuscularly 100 mg/kg/day
[5] = LD70, intramuscularly 200 mg/kg/day
[6] = LD70, intraperitoneally 50 mg/kg/day
[7] = LD70, intraperitoneally 100 mg/kg/day
[8] = LD90, intramuscularly 50 mg/kg/day
[9] = LD90, intramuscularly 100 mg/kg/day
[10] = LD90, intramuscularly 200 mg/kg/day
[11] = LD90, intraperitoneally 50 mg/kg/day
[12] = LD90, intraperitoneally 100 mg/kg/day

## Fullerene Poly(Aminocaproic Acid) of Formula C60(H3){NH(CH2)5COO—}3{NH3^+(CH2)5COOH}3 [Agent No. 1]
[1]; [3]
  Average lifetime (days): 13.3 (1-7 d., 1-8 d.) days
  Percent death protection (%): 50%
[1]; LD70, intramuscularly 50 mg/kg/day, day 1
  Percent body weight change in days post infection: +20%
[1]; LD70, intramuscularly 50 mg/kg/day, day 2
  Percent body weight change in days post infection: +22%
[1]; LD70, intramuscularly 50 mg/kg/day, day 3
  Percent body weight change in days post infection: +22%
[1]; LD70, intramuscularly 50 mg/kg/day, day 4
  Percent body weight change in days post infection: +17%
[1]; LD70, intramuscularly 50 mg/kg/day, day 5
  Percent body weight change in days post infection: +11%
[1]; LD70, intramuscularly 50 mg/kg/day, day 7
  Percent body weight change in days post infection: +9%
[1]; LD70, intramuscularly 50 mg/kg/day, day 9
  Percent body weight change in days post infection: +11%
[1]; LD70, intramuscularly 50 mg/kg/day, day 11
  Percent body weight change in days post infection: +19%
[1]; LD70, intramuscularly 50 mg/kg/day, day 13
  Percent body weight change in days post infection: +26%
[1]; [4]
  Percent death protection (%): 70%
  average lifetime: >16 days
[1]; LD70, intramuscularly 100 mg/kg/day, day 1
  Percent body weight change in days post infection: +21%
[1]; LD70, intramuscularly 100 mg/kg/day, day 2
  Percent body weight change in days post infection: +25%
[1]; LD70, intramuscularly 100 mg/kg/day, day 3
  Percent body weight change in days post infection: +27%
[1]; LD70, intramuscularly 100 mg/kg/day, day 4
  Percent body weight change in days post infection: +23%
[1]; LD70, intramuscularly 100 mg/kg/day, day 5
  Percent body weight change in days post infection: +20%
[1]; LD70, intramuscularly 100 mg/kg/day, day 7
  Percent body weight change in days post infection: +21.5%
[1]; LD70, intramuscularly 100 mg/kg/day, day 9
  Percent body weight change in days post infection: +32%
[1]; LD70, intramuscularly 100 mg/kg/day, day 11
  Percent body weight change in days post infection: +35.5%
[1]; LD70, intramuscularly 100 mg/kg/day, day 13
  Percent body weight change in days post infection: +38%
[1]; [5]
  Average lifetime (days): 13.8 (1-7 d., 1-13 d.) days
  Percent death protection (%): 50%
[1]; LD70, intramuscularly 200 mg/kg/day, day 1
  Percent body weight change in days post infection: +25%
[1]; LD70, intramuscularly 200 mg/kg/day, day 2
  Percent body weight change in days post infection: +27%
[1]; LD70, intramuscularly 200 mg/kg/day, day 3
  Percent body weight change in days post infection: +28%
[1]; LD70, intramuscularly 200 mg/kg/day, day 4
  Percent body weight change in days post infection: +24%
[1]; LD70, intramuscularly 200 mg/kg/day, day 5
  Percent body weight change in days post infection: +20%
[1]; LD70, intramuscularly 200 mg/kg/day, day 7
  Percent body weight change in days post infection: +23%
[1]; LD70, intramuscularly 200 mg/kg/day, day 9
  Percent body weight change in days post infection: +22%
[1]; LD70, intramuscularly 200 mg/kg/day, day 11
  Percent body weight change in days post infection: +25%
[1]; LD70, intramuscularly 200 mg/kg/day, day 13
  Percent body weight change in days post infection: +36.5%
[1]; [6]
  Average lifetime (days): 13.4 (2-8 d.) days
  Percent death protection (%): 50%
[1]; LD70, intraperitoneally 50 mg/kg/day, day 1
  Percent body weight change in days post infection: +21%
[1]; LD70, intraperitoneally 50 mg/kg/day, day 2
  Percent body weight change in days post infection: +27%
[1]; LD70, intraperitoneally 50 mg/kg/day, day 3
  Percent body weight change in days post infection: +29%
[1]; LD70, intraperitoneally 50 mg/kg/day, day 4
  Percent body weight change in days post infection: +21%
[1]; LD70, intraperitoneally 50 mg/kg/day, day 5
  Percent body weight change in days post infection: +16%
[1]; LD70, intraperitoneally 50 mg/kg/day, day 7
  Percent body weight change in days post infection: +15%
[1]; LD70, intraperitoneally 50 mg/kg/day, day 9
  Percent body weight change in days post infection: +31%
[1]; LD70, intraperitoneally 50 mg/kg/day, day 11
  Percent body weight change in days post infection: +36%
[1]; LD70, intraperitoneally 50 mg/kg/day, day 13
  Percent body weight change in days post infection: +40%
[1]; [7]
  Average lifetime (days): 13.7 (1-3 d.) days
  Percent death protection (%): 60%
[1]; LD70, intraperitoneally 100 mg/kg/day, day 1
  Percent body weight change in days post infection: +19%
[1]; LD70, intraperitoneally 100 mg/kg/day, day 2
  Percent body weight change in days post infection: +23%
[1]; LD70, intraperitoneally 100 mg/kg/day, day 3
  Percent body weight change in days post infection: +22%
[1]; LD70, intraperitoneally 100 mg/kg/day, day 4
  Percent body weight change in days post infection: +18%
[1]; LD70, intraperitoneally 100 mg/kg/day, day 5
  Percent body weight change in days post infection: +15%
[1]; LD70, intraperitoneally 100 mg/kg/day, day 7
  Percent body weight change in days post infection: +18%
[1]; LD70, intraperitoneally 100 mg/kg/day, day 9
  Percent body weight change in days post infection: +25%
[1]; LD70, intraperitoneally 100 mg/kg/day, day 11
  Percent body weight change in days post infection: +33%
[1]; LD70, intraperitoneally 100 mg/kg/day, day 13
  Percent body weight change in days post infection: +41%
[1]; LD70, intraperitoneally 200 mg/kg/day
  Percent death protection (%): 0%
[1]; LD70, intraperitoneally 200 mg/kg/day, day 1
  Percent body weight change in days post infection: +7%
[1]; LD70, intraperitoneally 200 mg/kg/day, day 2
  Percent body weight change in days post infection: +6%
[1]; LD70, intraperitoneally 200 mg/kg/day, day 3
  Percent body weight change in days post infection: +5%
[1]; LD70, intraperitoneally 200 mg/kg/day, day 4
  Percent body weight change in days post infection: −4%
[1]; LD70, intraperitoneally 200 mg/kg/day, day 5
  Percent body weight change in days post infection: −3%
[1]; LD70, intraperitoneally 200 mg/kg/day, day 7
  Percent body weight change in days post infection: −7%
[1]; LD70, intraperitoneally 200 mg/kg/day, day 9
  Percent body weight change in days post infection: +4%
[1]; LD70, intraperitoneally 200 mg/kg/day, day 11
  Percent body weight change in days post infection: +6%
[1]; LD70, intraperitoneally 200 mg/kg/day, day 13
  Percent body weight change in days post infection: +15%
[1]; LD70, orally 100 mg/kg/day
  Average lifetime (days): 13.1 (1-8 d., 1-10 d., 1-11 d.) days
  Percent death protection (%): 40%
[1]; LD70, orally 100 mg/kg/day, day 1
  Percent body weight change in days post infection: +19%
[1]; LD70, orally 100 mg/kg/day, day 2
  Percent body weight change in days post infection: +23%
[1]; LD70, orally 100 mg/kg/day, day 3
  Percent body weight change in days post infection: +25%
[1]; LD70, orally 100 mg/kg/day, day 4
  Percent body weight change in days post infection: +22%
[1]; LD70, orally 100 mg/kg/day, day 5
  Percent body weight change in days post infection: +16%
[1]; LD70, orally 100 mg/kg/day, day 7
  Percent body weight change in days post infection: +17%
[1]; LD70, orally 100 mg/kg/day, day 9
  Percent body weight change in days post infection: +24%
[1]; LD70, orally 100 mg/kg/day, day 11
  Percent body weight change in days post infection: +43%
[1]; LD70, orally 100 mg/kg/day, day 13
  Percent body weight change in days post infection: +51%
[1]; LD70, orally 200 mg/kg/day
  Percent death protection (%): 70%
  average lifetime: >16 days
[1]; LD70, orally 200 mg/kg/day, day 1
  Percent body weight change in days post infection: +26%
[1]; LD70, orally 200 mg/kg/day, day 2
  Percent body weight change in days post infection: +31%
[1]; LD70, orally 200 mg/kg/day, day 3
  Percent body weight change in days post infection: +36%
[1]; LD70, orally 200 mg/kg/day, day 4
  Percent body weight change in days post infection: +36%
[1]; LD70, orally 200 mg/kg/day, day 5
  Percent body weight change in days post infection: +36%
[1]; LD70, orally 200 mg/kg/day, day 7
  Percent body weight change in days post infection: +38%
[1]; LD70, orally 200 mg/kg/day, day 9
  Percent body weight change in days post infection: +47%
[1]; LD70, orally 200 mg/kg/day, day 11
  Percent body weight change in days post infection: +51%
[1]; LD70, orally 200 mg/kg/day, day 13
  Percent body weight change in days post infection: +57%
[1]; LD70, orally 300 mg/kg/day
  Average lifetime (days): 12.8 (1-8 d., 2-9 d.) days
  Percent death protection (%): 40%
[1]; LD70, orally 300 mg/kg/day, day 1
  Percent body weight change in days post infection: +24%
[1]; LD70, orally 300 mg/kg/day, day 2
  Percent body weight change in days post infection: +27%
[1]; LD70, orally 300 mg/kg/day, day 3
  Percent body weight change in days post infection: +28%
[1]; LD70, orally 300 mg/kg/day, day 4
  Percent body weight change in days post infection: +24%
[1]; LD70, orally 300 mg/kg/day, day 5
  Percent body weight change in days post infection: +19%
[1]; LD70, orally 300 mg/kg/day, day 7
  Percent body weight change in days post infection: +23%
[1]; LD70, orally 300 mg/kg/day, day 9
  Percent body weight change in days post infection: +35%
[1]; LD70, orally 300 mg/kg/day, day 11
  Percent body weight change in days post infection: +36%
[1]; LD70, orally 300 mg/kg/day, day 13
  Percent body weight change in days post infection: +38%
[1]; [8]
  Average lifetime (days): 11.4 (2-7 d., 1-8 d., 2-11 d) days
  Percent death protection (%): 40%
[1]; [9]
  Average lifetime (days): 13.0 (1-8 d., 1-9 d., 1-11 d.) days
  Percent death protection (%): 60%
[1]; [10]
  Average lifetime (days): 13.1 (1-7 d., 2-11 d) days
  Percent death protection (%): 60%
[1]; [11]
  Average lifetime (days): 11.5 (2-7 d. D-9 d., 2-11 d.) days
  Percent death protection (%): 40%
[1]; [12]
  Average lifetime (days): 10 D3-7 d., 2-8 d., 1-9 d.) days
  Percent death protection (%): 30%
[1]; LD90, orally 100 mg/kg/day
  Average lifetime (days): 10.8 (2-7 d., 1-9 d., 2-10 d., 1-11 d) days
  Percent death protection (%): 30%
[1]; LD90, orally 200 mg/kg/day
  Average lifetime (days): 13.4 (1-10 d., 2-11 d) days
  Percent death protection (%): 60%
[1]; intramuscular, doses of 100 and 200 mg/kg/day
  increase of lifetime: twofold
[1]; intraperitoneal, 200 mg/kg/day
  toxicity for infected mice: toxic
[1]; intraperitoneal, only in doses of 50 and 100 mg/kg/day
  efficiency of intraperitoneal treatment: efficient
[2]; 100 mg/kg
  ALT in days, M ± m: 71.9 ± 2.58 days
  ILT, %: 89.71%
[2]; 100 mg/kg, listed as agent
  ALT in days, M ± m: 71.9 ± 2.58 days
[2]; 200 mg/kg
  average lifetime: 73.4+0.92 days
  percent increase in lifetime compared to the control: 93.67%
[2]; 250 mg/kg
  ALT in days, M ± m: 73.40 ± 0.92 days
  ILT, %: 93.67%
[2]; mouse, in vivo
  intoxication signatures: No intoxication signatures were detected
